Assay results: patent US8895744B2, “Alfa-carboline inhibitors of NPM-ALK, RET, and Bcr-Abl” (Universita' Degli Studi di Milano-Bicocca, priority 2008, dated 2014)
Where two headings read alike, the source gives them in different places.

What was measured:
Recombinant ALK kinase = target: T1, Recombinant ALK kinase (Homo sapiens, UniProt Q9UM73); assay: ALK kinase inhibitory activity, ELISA-based in vitro kinase assay; type: biochemical
T1 construct: made in house; host or cells: Sf9 insect cells (baculovirus)
In short: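 Sf9-expressed, purified recombinant ALK phosphorylated a plate-coated peptide substrate with 0.3 mM ATP, Mn2+/Mg2+, pH 7.5, 15 min at 30° C, after 10 min inhibitor preincubation. Phosphotyrosine was detected by anti-pTyr ELISA (TMB, A450); IC50 in μM is the concentration giving 50% inhibition relative to control.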

[1] = target: T2, Recombinant Abl T315I protein (Homo sapiens, UniProt P00519, T315I); assay: Abl T315I mutant kinase inhibitory activity, ELISA-based in vitro kinase assay; type: biochemical; settings: purified Abl T315I, 0.3 mM ATP
T2 construct: made in house; host or cells: Sf9 cells (baculovirus)
In short: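 His-tagged human Abl T315I from Sf9 cells, preincubated 10 min at room temperature with inhibitor, then reacted on peptide-coated plates with 0.3 mM ATP, 1 mM MnCl2, 5 mM MgCl2 in 50 mM Tris pH 7.5. Phosphotyrosine detected by anti-pTyr/HRP ELISA at 450 nm; IC50 as 50% inhibition vs control.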

[2] = tested on: parent untransformed BaF3 cells; assay: Tritiated thymidine uptake cell proliferation assay, parental BaF3 (control); type: cell-based; settings: Mus musculus, 3[H]-thymidine uptake, 72 h, medium with IL-3, read-out: BaF parental IC50
In short: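 Control lines were parental BaF3 in IL-3-supplemented medium and ALK-, Abl- or RET-negative U937, seeded at 10 000 cells/well with serial inhibitor dilutions for 72 h at 37 °C. ³H-thymidine (1 μCi/well) was added for the final 16 h; IC50 (μM) is the concentration halving uptake versus DMSO.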

[3] = target: T3, BaF3 cells transformed with the oncogenic fusion protein NPM/ALK (Homo sapiens, UniProt Q9UM73); assay: Tritiated thymidine uptake cell proliferation assay, BaF3 NPM/ALK; type: cell-based; settings: 3[H]-thymidine uptake, 72 h; read-out: BaF NPM/ALK IC50
T3 construct: fused on or other part: P06748 (Nucleophosmin)
In short: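 Cells were seeded at 10 000/well with serial inhibitor dilutions or DMSO vehicle and incubated 72 h at 37 °C, with ^3[H]-thymidine (1 μCi/well) added for the final 16 h. Incorporation was read by β scintillation counting. IC50 (μM) is the concentration giving a 50% decrease in uptake versus controls.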

[4] = tested on: NPM/ALK positive SUDHL-1 cells; assay: Tritiated thymidine uptake cell proliferation assay, SUDHL-1; type: cell-based; settings: 3[H]-thymidine uptake, 72 h
Experimental: Inhibition of the proliferation of NPM/ALK positive cells
(§1) Method: Tritiated Thymidine Uptake Cell Proliferation Assay
(§2) The following procedure was used with parent untransformed BaF3 cells, BaF3 cells transformed with the oncogenic fusion protein NPM/ALK, NPM/ALK positive SUDHL-1 cells, ALK-negative U937 cells, NPM/ALK positive KARPAS-299 cells. The parent untransformed BaF3 cells and Alk-negative U937 cells are used as controls. Cells were seeded in U-bottomed 96-well plates at 10 000 cells/well in a volume of 100 μL in supplemented medium. In the case of the parent untransformed BaF3 cells, the medium was supplemented with IL-3. Serial dilutions of inhibitors were added to the appropriate wells and volumes adjusted to 200 μL. Controls were treated with the equivalent volume of vehicle, DMSO, alone. Plates were incubated at 37° C. for 72 h. ^3[H]-thymidine (1 μCi/well) was added for the last 16 h of incubation. Cells were harvested on to paper filters and ^3[H]-thymidine incorporation was measured using a β scintillation counter (1430 MicroBeta, Wallac, Turku, Finland). The 50% inhibitory concentration (IC50) was defined as the concentration of inhibitor, expressed in micromolar, that gave a 50% decrease in ^3[H]-thymidine uptake compared with controls.

ALK-negative U937 cells = assay: Tritiated thymidine uptake cell proliferation assay, U937 (control); type: cell-based; settings: Homo sapiens, U-937; 3[H]-thymidine uptake, 72 h
Experimental: as §1
as §2, with “with controls. […]” for “with controls.”
as §2, with “RET-PTC2, or RET-negative 11937” for “NPM/ALK, NPM/ALK positive SUDHL-1 cells, ALK-negative U937 cells, NPM/ALK positive KARPAS-299”, “RET-negative” for “Alk-negative”

Recombinant Ret protein = target: T4, Recombinant Ret protein (Homo sapiens, UniProt P07949); assay: RET kinase inhibitory activity, ELISA-based in vitro kinase assay; type: biochemical; settings: purified Ret, 0.3 mM ATP
T4 construct: made in house; host or cells: Sf9 cells (baculovirus)
Experimental: Recombinant ALK kinase was expressed in Sf9 insect cells using the pBlueBacHis2C baculovirus vector system and purified using an anion exchange Fast Flow Q-sepharose column (Amersham-Pharmacia Biotech) followed by HiTrap™-nickel affinity column (Amersham-Pharmacia Biotech). Purified ALK protein was used to screen inhibitors in the ELISA-based kinase assay. A Nunc Immuno 96 well plate was incubated overnight at 37° C. with coating solution (125 μL/well) containing ALK peptide substrate ([…]) (SEQ ID NO: 1) at various concentrations in PBS. Wells were then washed with 200 μL of wash buffer (PBS-Tween 0.05%) and left to dry for at least 2 h at 37° C. The kinase reaction was performed in the presence of 50 mM Tris pH 7.5, 5 mM MnCl2, 5 mM MgCl2, 0.3 mM ATP and purified rALK in a total volume of 100 μL/well at 30° C. for 15 min. For inhibitor testing the reaction mix was preincubated with the inhibitor or solvent control for 10 min at room temperature before transferring to the ELISA plate. After the reaction wells were washed 5 times with 200 μL of wash buffer. Phosphorylated peptide was detected using 100 μL/well of a mouse monoclonal anti-phosphotyrosine antibody (clone 4G10 Upstate Biotech Ltd) diluted 1:2000 in PBS+4% BSA. After 30 min incubation at room temperature the antibody was removed and wells were washed as described above. 100 μL of a secondary antibody (anti-mouse IgG, Horseradish Peroxidase linked whole antibody, Amersham Pharmacia Biotech) diluted 1:1000 in PBS+4% BSA was added to each well and the plate was incubated again for 30 min at room temperature before washing as above. The plate was developed using 100 μL/well TMB Substrate Solution (Endogen) and the reaction was stopped by adding an equiv.ual volume of H2SO4 0.36 M. Finally, the absorbance was read at 450 nm using an Ultrospec® 300 spectrophotometer (Amersham-Pharmacia Biotech). The concentration of the test solution showing 50% inhibition as compared with the control was expressed as IC50 (μM).
38. RET Kinase Inhibitory Activity
Method: ELISA-Based In Vitro Kinase Assay
Recombinant Ret protein was expressed in Sf9 cells using the pBlueBacHis2C baculovirus expression vector. Ret was purified using an anion exchange Fast Flow Q-sepharose column (Amersham-Pharmacia Biotech) followed by HiTrap™-nickel affinity column (Amersham-Pharmacia Biotech). Purified Ret was used in the ELISA-based kinase assay to screen inhibitors as described above. The kinase reaction was performed in the presence of 50 mM Tris pH 7.5, 1 mM MnCl2, 5 mM MgCl2, 0.3 mM ATP, peptide substrate ([…]) (SEQ ID NO: 1) and purified Ret. The concentration of the test solution showing 50% inhibition as compared with the control was expressed as IC50 (μM).

[5] = target: BaF3 cells transformed with the oncogenic fusion protein bcr-abl (Homo sapiens, UniProt P00519); assay: Tritiated thymidine uptake cell proliferation assay, BaF3 BCR/ABL; type: cell-based; settings: 3[H]-thymidine uptake, 72 h; read-out: BaF BCR/ABL IC50
Experimental: (§3) Inhibition of the Proliferation of Bcr/Abl Positive Cells
as §1
as §2, with “protein bcr-abl, Abl-negative” for “protein NPM/ALK, NPM/ALK positive SUDHL-1 cells, ALK-negative”, “cells, or Bcr-abl” for “cells, NPM/ALK”, “positive LAMA-84” for “positive KARPAS-299”, “and Abl-negative” for “and Alk-negative”, “in ^3H-thymidine” for “in ^3[H]-thymidine”

[6] = tested on: Bcr-abl positive LAMA-84 cells; assay: Tritiated thymidine uptake cell proliferation assay, LAMA-84; type: cell-based; settings: Homo sapiens, 3[H]-thymidine uptake, 72 h
Experimental: as §3, §1
as §2, with “protein bcr-abl, Abl-negative” for “protein NPM/ALK, NPM/ALK positive SUDHL-1 cells, ALK-negative”, “cells, or Bcr-abl” for “cells, NPM/ALK”, “positive LAMA-84” for “positive KARPAS-299”, “and Abl-negative” for “and Alk-negative”, “in ^3H-thymidine” for “in ^3[H]-thymidine”

[7] = purified rALK, 0.3 mM ATP, read-out: ALK IC50

T1 sequence (Q9UM73 19-1620): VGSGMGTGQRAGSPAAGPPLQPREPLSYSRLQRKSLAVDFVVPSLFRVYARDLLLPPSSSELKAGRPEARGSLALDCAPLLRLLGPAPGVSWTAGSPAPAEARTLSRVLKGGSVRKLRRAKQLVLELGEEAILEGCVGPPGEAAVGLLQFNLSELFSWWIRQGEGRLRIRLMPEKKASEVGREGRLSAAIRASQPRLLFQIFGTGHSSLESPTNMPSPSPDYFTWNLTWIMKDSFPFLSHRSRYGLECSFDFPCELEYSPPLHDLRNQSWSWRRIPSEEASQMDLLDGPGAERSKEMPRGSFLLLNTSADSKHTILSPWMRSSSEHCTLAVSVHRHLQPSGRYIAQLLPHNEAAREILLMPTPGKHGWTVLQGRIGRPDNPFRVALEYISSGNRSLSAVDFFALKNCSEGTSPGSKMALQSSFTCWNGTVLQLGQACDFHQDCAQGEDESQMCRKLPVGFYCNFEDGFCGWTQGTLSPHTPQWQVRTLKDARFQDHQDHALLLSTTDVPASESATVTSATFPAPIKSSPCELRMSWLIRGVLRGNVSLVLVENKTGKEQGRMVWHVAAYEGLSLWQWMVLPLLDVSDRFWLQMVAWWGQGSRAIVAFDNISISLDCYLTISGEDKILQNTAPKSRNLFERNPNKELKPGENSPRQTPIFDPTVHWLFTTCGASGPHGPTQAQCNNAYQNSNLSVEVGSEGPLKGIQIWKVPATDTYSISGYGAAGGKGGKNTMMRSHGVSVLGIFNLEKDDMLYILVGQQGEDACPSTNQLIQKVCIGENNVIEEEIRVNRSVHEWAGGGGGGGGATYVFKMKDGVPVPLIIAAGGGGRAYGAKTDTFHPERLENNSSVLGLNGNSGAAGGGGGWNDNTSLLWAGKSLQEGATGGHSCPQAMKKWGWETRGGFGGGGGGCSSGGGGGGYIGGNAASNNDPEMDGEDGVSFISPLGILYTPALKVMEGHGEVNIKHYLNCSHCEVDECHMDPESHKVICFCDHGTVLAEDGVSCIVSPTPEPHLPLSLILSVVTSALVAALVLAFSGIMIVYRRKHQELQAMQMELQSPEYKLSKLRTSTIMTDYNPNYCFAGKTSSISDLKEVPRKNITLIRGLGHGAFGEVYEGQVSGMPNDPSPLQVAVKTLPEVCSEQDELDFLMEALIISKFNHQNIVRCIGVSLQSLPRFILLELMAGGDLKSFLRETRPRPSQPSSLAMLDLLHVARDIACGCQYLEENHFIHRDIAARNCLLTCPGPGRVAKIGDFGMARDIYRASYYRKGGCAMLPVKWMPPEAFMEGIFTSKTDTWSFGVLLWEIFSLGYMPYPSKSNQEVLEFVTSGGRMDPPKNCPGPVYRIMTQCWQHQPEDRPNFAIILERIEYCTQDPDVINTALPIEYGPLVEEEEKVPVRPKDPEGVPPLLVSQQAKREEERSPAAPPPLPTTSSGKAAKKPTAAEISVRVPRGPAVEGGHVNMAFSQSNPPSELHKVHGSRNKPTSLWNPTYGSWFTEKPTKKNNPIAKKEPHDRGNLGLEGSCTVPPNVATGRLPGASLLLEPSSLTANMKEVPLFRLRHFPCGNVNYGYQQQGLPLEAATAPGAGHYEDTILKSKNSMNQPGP
T3 sequence (Q9UM73 whole entry, change not shown, the tested form may be a part): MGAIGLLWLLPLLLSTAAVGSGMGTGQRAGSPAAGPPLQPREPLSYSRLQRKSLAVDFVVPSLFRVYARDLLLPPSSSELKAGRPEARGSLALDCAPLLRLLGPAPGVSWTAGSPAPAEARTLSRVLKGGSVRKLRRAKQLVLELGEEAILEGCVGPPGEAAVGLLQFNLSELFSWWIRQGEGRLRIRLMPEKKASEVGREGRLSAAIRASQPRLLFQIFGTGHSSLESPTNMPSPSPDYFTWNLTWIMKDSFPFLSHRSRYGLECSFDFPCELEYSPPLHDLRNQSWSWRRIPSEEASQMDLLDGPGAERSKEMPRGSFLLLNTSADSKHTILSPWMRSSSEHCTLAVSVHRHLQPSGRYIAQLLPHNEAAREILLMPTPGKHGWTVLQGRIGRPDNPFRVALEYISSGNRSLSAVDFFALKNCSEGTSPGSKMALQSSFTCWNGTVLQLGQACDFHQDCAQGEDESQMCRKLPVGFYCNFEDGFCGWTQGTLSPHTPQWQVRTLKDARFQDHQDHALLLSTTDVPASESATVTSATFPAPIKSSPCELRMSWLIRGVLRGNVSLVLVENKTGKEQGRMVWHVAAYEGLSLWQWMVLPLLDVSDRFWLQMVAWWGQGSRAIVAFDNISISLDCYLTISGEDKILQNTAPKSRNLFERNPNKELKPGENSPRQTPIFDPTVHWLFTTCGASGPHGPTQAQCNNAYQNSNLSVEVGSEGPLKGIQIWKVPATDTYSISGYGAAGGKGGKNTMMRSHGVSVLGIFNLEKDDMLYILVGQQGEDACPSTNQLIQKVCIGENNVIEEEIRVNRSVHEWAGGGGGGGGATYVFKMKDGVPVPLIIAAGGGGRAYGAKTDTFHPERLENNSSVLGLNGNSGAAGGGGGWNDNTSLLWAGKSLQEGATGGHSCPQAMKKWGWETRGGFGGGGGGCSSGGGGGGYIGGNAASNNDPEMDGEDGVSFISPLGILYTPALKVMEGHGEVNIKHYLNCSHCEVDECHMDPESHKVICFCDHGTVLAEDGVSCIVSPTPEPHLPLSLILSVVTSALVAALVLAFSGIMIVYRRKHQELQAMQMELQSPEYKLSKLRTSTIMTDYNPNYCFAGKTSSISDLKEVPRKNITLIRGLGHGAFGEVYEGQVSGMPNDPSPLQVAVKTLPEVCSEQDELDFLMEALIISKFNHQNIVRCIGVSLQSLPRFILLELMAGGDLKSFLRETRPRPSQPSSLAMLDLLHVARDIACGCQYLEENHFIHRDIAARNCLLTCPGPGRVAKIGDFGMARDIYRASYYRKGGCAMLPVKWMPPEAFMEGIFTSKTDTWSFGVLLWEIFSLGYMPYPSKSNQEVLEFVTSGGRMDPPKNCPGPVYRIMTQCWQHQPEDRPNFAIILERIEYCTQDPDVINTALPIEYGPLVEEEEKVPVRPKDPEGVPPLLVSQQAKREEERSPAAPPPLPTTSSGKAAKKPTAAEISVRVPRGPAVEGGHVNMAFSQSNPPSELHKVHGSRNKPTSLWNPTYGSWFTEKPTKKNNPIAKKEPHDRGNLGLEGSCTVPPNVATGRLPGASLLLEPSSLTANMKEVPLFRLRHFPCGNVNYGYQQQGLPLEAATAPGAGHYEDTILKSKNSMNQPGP
T4 sequence (P07949 29-1114): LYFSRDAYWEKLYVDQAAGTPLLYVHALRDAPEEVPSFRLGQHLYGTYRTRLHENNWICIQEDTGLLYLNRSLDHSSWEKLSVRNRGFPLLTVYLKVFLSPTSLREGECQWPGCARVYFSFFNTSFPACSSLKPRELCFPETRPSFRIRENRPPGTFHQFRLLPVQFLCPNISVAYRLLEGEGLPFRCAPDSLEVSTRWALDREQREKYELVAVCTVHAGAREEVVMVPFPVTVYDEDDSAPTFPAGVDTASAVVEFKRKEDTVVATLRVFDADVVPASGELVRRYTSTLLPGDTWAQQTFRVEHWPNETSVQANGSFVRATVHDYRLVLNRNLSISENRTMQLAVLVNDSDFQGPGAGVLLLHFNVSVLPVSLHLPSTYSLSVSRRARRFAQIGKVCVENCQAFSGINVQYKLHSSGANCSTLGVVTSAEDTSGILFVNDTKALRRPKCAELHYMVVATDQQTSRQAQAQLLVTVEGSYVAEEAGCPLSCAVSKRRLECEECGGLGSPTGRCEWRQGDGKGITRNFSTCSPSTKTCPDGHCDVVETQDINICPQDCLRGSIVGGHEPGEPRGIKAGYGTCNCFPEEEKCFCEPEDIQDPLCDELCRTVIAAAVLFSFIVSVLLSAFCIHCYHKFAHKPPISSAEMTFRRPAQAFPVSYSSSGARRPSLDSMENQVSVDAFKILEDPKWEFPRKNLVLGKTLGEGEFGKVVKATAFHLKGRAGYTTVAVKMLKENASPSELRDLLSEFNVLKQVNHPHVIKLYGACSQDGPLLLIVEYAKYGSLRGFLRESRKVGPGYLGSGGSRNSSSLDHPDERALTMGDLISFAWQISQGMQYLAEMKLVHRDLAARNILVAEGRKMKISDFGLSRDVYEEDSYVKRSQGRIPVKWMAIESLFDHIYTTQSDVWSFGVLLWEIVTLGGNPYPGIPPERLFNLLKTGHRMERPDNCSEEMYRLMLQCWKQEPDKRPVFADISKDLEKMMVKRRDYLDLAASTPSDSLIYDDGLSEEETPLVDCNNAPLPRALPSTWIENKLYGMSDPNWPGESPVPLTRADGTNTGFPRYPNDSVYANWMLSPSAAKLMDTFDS

IC50 (Recombinant ALK kinase; [7]) [µM]	IC50 [1] [µM]	GI50 [3] [µM]	IC50 [4] [µM]	IC50 (ALK-negative U937 cells) [µM]	IC50 (Recombinant Ret protein) [µM]	GI50 [5] [µM]	IC50 (Recombinant ALK kinase; repeated determinations, 1st, read-out: ALK IC50, 1st determination) [µM]	IC50 (Recombinant ALK kinase; repeated determinations, 2nd or 'then', read-out: ALK IC50, 2nd / subsequent determination) [µM]	ALK IC50, 3rd determination (Recombinant ALK kinase; repeated determinations, 3rd)	Structure (SMILES)	IC50 [2] [µM]	IC50 [6] [µM]
1.1 ± 0.3	6.5	3.9 ± 1.1	2	21	–	–	–	–	–	COc1ccc(-c2ccc3[nH]c4ncc(/C=C/c5ccccc5)cc4c3c2)cc1 [R315, 6-(4-methoxyphenyl)-3-(2′-phenylethenyl)-9H-pyrido[2,3-b]indole]	25 ± 10	–
> 100	> 100	> 25	13	–	> 100	> 25	–	–	–	CN(C)CCSCC(=O)c1ccc2[nH]c3ncccc3c2c1 [R263]	> 25	–
40 ± 1.9	54 ± 43	> 25	> 25	–	26 ± 4.7	> 25	–	–	–	O=C(NCCc1ccc2[nH]c3ncc(Cl)cc3c2c1)c1ccccc1 [R265, N-(2-(3-chloro-9H-pyrido[2,3-b]indol-6-yl)ethyl)benzamide]	> 25	–
–	–	> 20	–	–	–	> 20	–	–	–	CC(=O)c1ccc2[nH]c3ncc(Cl)cc3c2c1 [R253, 6-acetyl-3-chloro-9H-pyrido[2,3-b]indole]	> 20	–
–	3.6 ± 0.19	> 25	0.6	–	3.3 ± 1.5	> 25	–	–	–	COc1ccc(-c2ccc3[nH]c4ncccc4c3c2)cc1 [R268]	> 25	–
3.3 ± 0.4	9.8 ± 0.67	3.4	0.81	–	4.6 ± 0.39	2	–	–	–	O=[N+]([O-])/C=C/c1ccc2[nH]c3ncc(Cl)cc3c2c1 [R266, 3-chloro-6-(2′-nitrovinyl)-9H-pyrido[2,3-b]indole]	3.4	–
–	–	> 100	> 100	> 100	–	–	5.1	35	inactive	COc1ccc(/C=C/c2ccc3[nH]c4ncc(Cl)cc4c3c2)cc1 [R350, (E)-3-chloro-6-(2′-(4-methoxyphenyl)ethenyl)-9H-pyrido[2,3-b]indole]	> 100	–
–	> 50	1.6 ± 0.1	2.1	–	–	–	–	–	–	C(=C\c1cnc2[nH]c3ccc(-c4ccc(CN5CCOCC5)cc4)cc3c2c1)/c1ccccc1 [R314, 6-(4-(morpholin-4-yl)methylphenyl)-3-(2′-phenylethenyl)-9H-pyrido[2,3-b]indole]	–	2.1
13 ± 0.58	49 ± 1.1	13	24	–	24 ± 6.1	23	–	–	–	O=C(CSc1ccccn1)c1ccc2[nH]c3ncccc3c2c1 [R264]	19	–
31 ± 9	–	2.5	2.4	1.1	–	–	–	–	–	CCN(CC)CCCOc1ccc(-c2ccc3[nH]c4ncc(Cl)cc4c3c2)cc1 [R337, 3-(4-(3-chloro-9H-pyrido[2,3-b]indol-6-yl)phenoxy)-N,N-diethylpropan-1-amine]	2.6	–
